Where “and” joins values, the source holds several entries; their conditions need not be identical. Equal values may be shown once.
Experiment: Pharmacokinetics and bioavailability in dogs, plasma determined by LC-MS
Assay type: in vivo, dog
Experimental: A. The Pharmacokinetics of R-Oxiracetam In Vivo and Studies of Bioavailability
4 Determination Methods of Oxiracetam and R-Oxiracetam in Plasma by LC-MS
4.1 Chromatographic Conditions
Mobile phase: methanol: water (5:95)
Column: ZORBAX SB-Aq (2.1×100 mm 3.5μ)
Column temperature: 30° C.;
Injection volume: […] 4.2 Mass Spectrometry Detection Parameters
Mass spectrometry ionization method: electrospray ionization (ESI); ion polarity Positive; scanning mode for multiple reactions monitoring (MRM); scanning time of 100 ms. The ionic reactions used for quantitative analysis were m/z (oxiracetam) m/z 159.0→m/z 113.9 and m/z 143.1→m/z 126.0 (piracetam), respectively.
20 μL of the drug-containing the plasma sample is taken in a 1.5 mL Eppendorf tube. 20 μL of piracetam (20 μg/mL) of the internal standard solution is added, and mixed by the vortex mixer for 30s. Then, 500 μL of acetonitrile is added thereto, vortex shaken for 5 min and centrifugated at 16000 rpm for 10 min. The supernatant from the centrifugation was passed through 1 ml of SPE C 18E column and the filtrate was collected, put into 38° C. constant temperature water bath and dried by nitrogen gas. 300 μL of mobile phase was dissolved and the injection volume was 10 μL.
20 μL of blank dog plasma was added into the working solution prepared from the oxiracetam standard. The concentrations of oxiracetam in the plasma were 0.167, 0.33, 0.37, 1.33, 2.67, 4.0, 6.67, 13.33 and 26.67 μg/mL, respectively. A sample was made for each concentration respectively according to the procedures“4.4 Extraction of plasma samples”. The ratio of the peak area (As) of oxiracetam to the peak area (Ai) of the internal standard piracetam (f=As/Ai) were calculated, and perform linear regression using the concentration (C) to the ratio (f). The weight parameter 1/x, and the oxiracetam regression equation: y=5.2117X−0.76985 (r=0.9970, weight 1/x).
20 μL of blank dog plasma was added into the working solution prepared from the R-oxiracetam standard. The concentrations of R-oxiracetam in the plasma were 0.167, 0.33, 0.37, 1.33, 2.67, 4.0, 6.67, 13.33 and 26.67 μg/mL, respectively. A sample was made for each concentration respectively according to the procedures “4.4 Extraction of plasma samples”. The ratio of the peak area (As) of R-oxiracetam to the peak area (Ai) of the internal standard piracetam (f=As/Ai) were calculated, and perform linear regression using the concentration (C) to the ratio (f). The weight parameter 1/x, and the oxiracetam regression equation: y=1.6811X−0.031244(r=0.9949, weight 1/x).

NC(=O)CN1C[C@H](O)CC1=O [R-oxiracetam, (R)-4-hydroxy-2-oxo-1-pyrrolidineacetamide]
Concentration in dog blood C (Time 0 h, individual dogs, one table per dog): 0 ng/mL | Concentration in dog blood C (Time 0.5 h, individual dogs, one table per dog): 30410 ng/mL and 9013 ng/mL and 51070 ng/mL and 7637 ng/mL and 33000 ng/mL and 74670 ng/mL | Concentration in dog blood C (Time 1 h, individual dogs, one table per dog): 50870.6 ng/mL and 35550 ng/mL and 70640 ng/mL and 48190 ng/mL and 54750 ng/mL and 112164.2 ng/mL | Concentration in dog blood C (Time 1.5 h, individual dogs, one table per dog): 110222.9 ng/mL and 37880 ng/mL and 76280 ng/mL and 74560 ng/mL and 61910 ng/mL and 58530 ng/mL | Concentration in dog blood C (Time 6 h, individual dogs, one table per dog): 7637 ng/mL and 14070 ng/mL and 12210 ng/mL and 4648 ng/mL and 10140 ng/mL and 4409 ng/mL | Concentration in dog blood C (Time 8 h, individual dogs, one table per dog): 3684 ng/mL and 4731 ng/mL and 9036 ng/mL and 2318 ng/mL and 4967 ng/mL and 2215 ng/mL | Concentration in dog blood C (Time 12 h, individual dogs, one table per dog): 1610 ng/mL and 1913 ng/mL and 2205 ng/mL and 1461.5 ng/mL and 3568 ng/mL and 1333 ng/mL | Concentration in dog blood C (Time 24 h, individual dogs, one table per dog): 0 ng/mL | concentration at 0 h (dog, plasma, Time 0 h, individual dogs, one table per dog, read-out: Concentration in dog blood C): 0 ng/mL | concentration at 4 h (dog, plasma, Time 4 h, individual dogs, one table per dog, read-out: Concentration in dog blood C): 18400 ng/mL | concentration at 24 h (dog, plasma, Time 24 h, individual dogs, one table per dog, read-out: Concentration in dog blood C): 0 ng/mL | Cmax (dog, plasma, dogs, mean ± SD): 85800 ± 20000 ng/mL | Tmax (dog, plasma, dogs, mean ± SD): 2.04 ± 0.401 h | bioavailability (dog, plasma, dogs, with oxiracetam as a reference, read-out: relative bioavailability): 112 ± 11.6%
